US11999727B2 (Tango Therapeutics, Inc., priority 2020, dated 2024)

Legend:
[1] = target: T1, PRMT5 (Homo sapiens, UniProt O14744); test: PRMT5 biochemical IC50 assay with SAM as cofactor; conditions: PRMT5, SAM as cofactor; read-out: SAM IC50
T1 construct: purchased Viva (custom protein)

[2] = target: T1, PRMT5; test: PRMT5 biochemical IC50 assay with no cofactor; conditions: PRMT5, no cofactor; read-out: No Cofactor/rel IC50
Source text: Table 1 indicates IC50 values (μM) against PRMT5 for exemplary compounds in the presence of SAM as cofactor, with no cofactor, and with MTA as cofactor, respectively (columns 4-6). […] Ki values can be calculated from the IC50 values as described in the Examples section. As detailed in the Examples section, for the assay performed in the presence of SAM, IC50=Ki×1.5 (Ki=IC50/1.5).

[3] = target: T1, PRMT5; test: PRMT5 biochemical IC50 assay with MTA as cofactor; conditions: PRMT5, MTA as cofactor; read-out: MTA IC50
[4] = system: HAP1 MTAP-intact cell line; test: SDMA in-cell western assay, HAP1 MTAP-intact; type: cell-based; conditions: Homo sapiens, HAP1, SDMA in-cell western, HAP1 MTAP-intact; read-out: MTAP HAP1 intact IC50
Method in brief: (§1)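 MTAP-null vs endogenous-MTAP HAP1 isogenic cells; in-cell western SDMA readout; IC50 per line.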

[5] = system: HAP1 MTAP-deleted cell line; test: SDMA in-cell western assay, HAP1 MTAP-deleted; type: cell-based; conditions: for IC50: Homo sapiens, HAP1, SDMA in-cell western, HAP1 MTAP-deleted, read-out: HAP1 MTAP deleted IC50; for MTAP intact/deleted ratio: IC50 ratio HAP1 MTAP-intact vs HAP1 MTAP-deleted, SDMA in-cell western
Method in brief: as §1

[6] = system: HAP1 MTAP-deleted cell line; test: Viability assay, MTAP-deleted cell line; type: cell-based; conditions: Homo sapiens, HAP1, viability assay, MTAP-deleted cell line; read-out: HAP1 MTAP deleted viability
Source text: Table 1 additionally indicates IC50 values in a viability assay for the MTAP-deleted cell line (column 10), indicating the effect of treatment with compound on cell survival.

T1 sequence (O14744 whole entry): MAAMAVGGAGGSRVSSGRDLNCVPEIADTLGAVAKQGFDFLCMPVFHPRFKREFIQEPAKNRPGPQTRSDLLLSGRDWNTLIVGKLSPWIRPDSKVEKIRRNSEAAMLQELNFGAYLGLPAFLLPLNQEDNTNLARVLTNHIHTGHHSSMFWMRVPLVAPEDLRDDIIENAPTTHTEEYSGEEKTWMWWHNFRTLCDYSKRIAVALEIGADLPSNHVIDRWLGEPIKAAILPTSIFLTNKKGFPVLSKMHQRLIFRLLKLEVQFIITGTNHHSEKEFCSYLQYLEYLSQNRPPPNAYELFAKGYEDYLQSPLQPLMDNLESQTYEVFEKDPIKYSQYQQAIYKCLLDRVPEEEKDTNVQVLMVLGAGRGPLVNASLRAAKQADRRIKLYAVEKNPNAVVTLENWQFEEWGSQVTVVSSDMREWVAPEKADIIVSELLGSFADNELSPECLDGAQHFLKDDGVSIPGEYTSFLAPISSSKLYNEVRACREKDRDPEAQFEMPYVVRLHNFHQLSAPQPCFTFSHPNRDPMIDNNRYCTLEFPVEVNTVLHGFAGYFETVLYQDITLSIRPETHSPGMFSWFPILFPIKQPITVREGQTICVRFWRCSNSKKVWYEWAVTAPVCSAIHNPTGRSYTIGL
T1 sequence (Q9BQA1 whole entry partner): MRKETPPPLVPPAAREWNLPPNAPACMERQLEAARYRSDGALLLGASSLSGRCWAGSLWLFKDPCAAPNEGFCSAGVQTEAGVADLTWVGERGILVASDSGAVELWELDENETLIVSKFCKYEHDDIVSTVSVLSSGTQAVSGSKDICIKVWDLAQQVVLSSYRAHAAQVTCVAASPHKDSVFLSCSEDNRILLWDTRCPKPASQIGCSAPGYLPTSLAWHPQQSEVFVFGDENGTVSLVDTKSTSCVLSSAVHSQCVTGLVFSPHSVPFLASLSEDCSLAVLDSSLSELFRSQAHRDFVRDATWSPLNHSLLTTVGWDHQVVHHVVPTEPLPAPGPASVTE

Compound | IC50 [1] [nM] | IC50 [2] [nM] | IC50 [3] [nM] | IC50 [4] [nM] | IC50 [5] [nM] | MTAP intact/deleted ratio [5] | IC50 [6] [nM]
Cc1cc(NC(=O)C(=O)N2C[C@@H](C)CC[C@@H]2c2ccc3sc(-c4nccn4C)nc3c2)cnc1N [Compound 1186, N-(6-amino-5-methylpyridin-3-yl)-2-((2R,5S)-5-methyl-2-(2-(1-methyl-1H-imidazol-2-yl)benzo[d]thiazol-5-yl)piperidin-1-yl)-2-oxoacetamide] | 50 to 500 | < 50 | < 50 | < 100 | < 100 | A (an IC50 ratio greater than or equal to 10 fold) | < 1000
CCc1cc(NC(=O)C(=O)N2C[C@@H](C)CC[C@@H]2c2ccc3sc(C4CC5CCC(C4)N5C)nc3c2)cnc1N (stereo partly drawn) [Compound 1187, N-(6-amino-5-ethyl-3-pyridyl)-2-[(2R,5S)-5-methyl-2-[2-(8-methyl-8-azabicyclo[3.2.1]octan-3-yl)-1,3-benzothiazol-5-yl]-1-piperidyl]-2-oxo-acetamide] | < 50 | < 50 | < 50 | < 100 | < 100 | A (an IC50 ratio greater than or equal to 10 fold) | < 1000
CCc1cc(NC(=O)C(=O)N2C[C@@H](C)CC[C@@H]2c2ccc3sc(-c4nccn4C)nc3c2)cnc1N [Compound 1192, N-(6-amino-5-ethylpyridin-3-yl)-2-((2R,5S)-5-methyl-2-(2-(1-methyl-1H-imidazol-2-yl)benzo[d]thiazol-5-yl)piperidin-1-yl)-2-oxoacetamide] | 50 to 500 | < 50 | < 50 | 100 to 1000 | < 100 | A (an IC50 ratio greater than or equal to 10 fold) | < 1000
CCc1cc(NC(=O)C(=O)N2C[C@@H](C)CC[C@@H]2c2ccc3sc(-c4ccncc4)nc3c2)cnc1N [Compound 1194, N-(6-amino-5-ethylpyridin-3-yl)-2-((2R,5S)-5-methyl-2-(2-(pyridin-4-yl)benzo[d]thiazol-5-yl)piperidin-1-yl)-2-oxoacetamide] | 50 to 500 | < 50 | < 50 | 100 to 1000 | < 100 | A (an IC50 ratio greater than or equal to 10 fold) | < 1000
CCc1cc(NC(=O)C(=O)N2C[C@@H](C)CC[C@@H]2c2ccc3sc(CCN(C)C4COC4)nc3c2)cnc1N [Compound 1195, N-(6-amino-5-ethylpyridin-3-yl)-2-((2R,5S)-5-methyl-2-(2-(2-(methyl(oxetan-3-yl)amino)ethyl)benzo[d]thiazol-5-yl)piperidin-1-yl)-2-oxoacetamide] | 50 to 500 | < 50 | < 50 | < 100 | < 100 | A (an IC50 ratio greater than or equal to 10 fold) | < 1000
CCc1cc(NC(=O)C(=O)N2C[C@@H](C)CC[C@@H]2c2ccc3sc(C[C@@H](C)N(C)C)nc3c2)cnc1N [Compound 1198, N-(6-amino-5-ethylpyridin-3-yl)-2-((2R,5S)-2-(2-((R)-2-(dimethylamino)propyl)benzo[d]thiazol-5-yl)-5-methylpiperidin-1-yl)-2-oxoacetamide] | 50 to 500 | < 50 | < 50 | < 100 | < 100 | A (an IC50 ratio greater than or equal to 10 fold) | < 1000
CCc1cc(NC(=O)C(=O)N2C[C@@H](C)CC[C@@H]2c2ccc3cn(C)nc3c2)cnc1N [Compound 1199, N-(6-amino-5-ethyl-3-pyridyl)-2-[(5S)-5-methyl-2-(2-methylindazol-6-yl)-1-piperidyl]-2-oxo-acetamide] | 50 to 500 | < 50 | < 50 | 100 to 1000 | < 100 | A (an IC50 ratio greater than or equal to 10 fold) | < 1000
CCc1cc(NC(=O)C(=O)N2C[C@@H](C)CC[C@@H]2c2ccc3sc(-c4cccnc4)nc3c2)cnc1N [Compound 1200, N-(6-amino-5-ethylpyridin-3-yl)-2-((2R,5S)-5-methyl-2-(2-(pyridin-3-yl)benzo[d]thiazol-5-yl)piperidin-1-yl)-2-oxoacetamide] | 50 to 500 | < 50 | < 50 | 100 to 1000 | < 100 | A (an IC50 ratio greater than or equal to 10 fold) | < 1000
CCc1cc(NC(=O)C(=O)N2C[C@@H](C)CC[C@@H]2c2ccc3sc([C@H]4CN(C)CCO4)nc3c2)cnc1N [Compound 1202, N-(6-amino-5-ethyl-3-pyridyl)-2-oxo-2-[(2R,5S)-5-methyl-2-[2-[(2R)-4-methylmorpholin-2-yl]-1,3-benzothiazol-5-yl]-1-piperidyl]acetamide] | 50 to 500 | < 50 | < 50 | < 100 | < 100 | A (an IC50 ratio greater than or equal to 10 fold) | < 1000

Continued, in another order:

IC50 [1] [nM] | IC50 [2] [nM] | IC50 [3] [nM] | IC50 [4] [nM] | IC50 [5] [nM] | Compound | MTAP intact/deleted ratio [5] | IC50 [6] [nM]
< 50 | < 50 | < 50 | 100 to 1000 | < 100 | CCc1cc(NC(=O)C(=O)N2C[C@@H](C)CC[C@@H]2c2cccc(OCCN(C)C)c2)cnc1N [Compound 1175, N-(6-amino-5-ethylpyridin-3-yl)-2-((2R,5S)-2-(3-(2-(dimethylamino)ethoxy)phenyl)-5-methylpiperidin-1-yl)-2-oxoacetamide] | A (an IC50 ratio greater than or equal to 10 fold) | < 1000
< 50 | < 50 | < 50 | < 100 | < 100 | CCc1cc(NC(=O)C(=O)N2C[C@@H](C)CC[C@@H]2c2cccc(OC[C@@H]3CCN(C)C3)c2)cnc1N [Compound 1178, N-(6-amino-5-ethylpyridin-3-yl)-2-((2R,5S)-5-methyl-2-(3-(((R)-1-methylpyrrolidin-3-yl)methoxy)phenyl)piperidin-1-yl)-2-oxoacetamide] | A (an IC50 ratio greater than or equal to 10 fold) | < 1000
< 50 | < 50 | < 50 | < 100 | < 100 | CCc1cc(NC(=O)C(=O)N2C[C@@H](C)CC[C@@H]2c2cccc(OC[C@H]3CCN(C)C3)c2)cnc1N [Compound 1179, N-(6-amino-5-ethylpyridin-3-yl)-2-((2R,5S)-5-methyl-2-(3-(((S)-1-methylpyrrolidin-3-yl)methoxy)phenyl)piperidin-1-yl)-2-oxoacetamide] | A (an IC50 ratio greater than or equal to 10 fold) | < 1000
< 50 | < 50 | < 50 | < 100 | < 100 | Cc1cc(NC(=O)C(=O)N2C[C@@H](C)CC[C@@H]2c2ccc3sc(C4CCN(C5CC5)CC4)nc3c2)cnc1N [Compound 1181, N-(6-amino-5-methylpyridin-3-yl)-2-((2R,5S)-2-(2-(1-cyclopropylpiperidin-4-yl)benzo[d]thiazol-5-yl)-5-methylpiperidin-1-yl)-2-oxoacetamide] | B (an IC50 ratio greater than or equal to 3 fold but lower than 10 fold) | < 1000
